Reference: US9375434B2, “Antitumor effect potentiator composed of imidazooxazine compound” (Taiho Pharmaceutical Co., Ltd., priority 2012, dated 2016)

What was measured:
[1] = test system: Human stomach cancer cell line (4-1ST); experiment: Potentiation of antitumor effect of TS-1, 4-1ST subcutaneous implant in nude mice (Test Example 8); format: in vivo, BALB/cA Jcl-nu/nu mice
Procedure: As an index of antitumor effect, the TV at Day 15 was measured for each of the drug administration groups, and the relative tumor volume (RTV) relative to Day 1 and T/C (%) were calculated by the following formulas to evaluate the antitumor effect. […] In the figure, the asterisk represents a result having a statistically significant difference compared with the single-drug administration group.
FIG. 1 and Table 10 show the results. TV (mm^3)=(length×width^2)/2 RTV=(TV at Day 15)/(TV at Day 1) T/C(%)=(average RTV value of the test liquid administration group)/(average RTV value of the control group)×100
(§1) Human stomach cancer cell line (4-1ST) was subcutaneously implanted into the right flank of 6-week-old male BALB/cA Jcl-nu/nu mice, and was used in the same manner as in Test Example 1.
TS-1 was prepared by mixing FT (tegafur; Taiho Pharmaceutical Co., Ltd.), CDHP (gimeracil; Taiho Pharmaceutical Co., Ltd.) and Oxo (oteracil potassium; Taiho Pharmaceutical Co., Ltd.) at a molar ratio of 1:0.4:1, adding a 0.5% (w/v) HPMC aqueous solution to the mixture at an FT concentration of 1.66 mg/mL, and subjecting the mixture to a ultrasonic treatment to obtain an even suspension (an administration liquid having a double concentration of the liquid in the group of 8.3 mg/kg/day dose). The suspension was diluted two-fold with a 0.5% (w/v) HPMC aqueous solution to a concentration of 0.83 mg/mL, thereby yielding an administration liquid to be used for the group of 8.3 mg/kg/day dose. Further, the test liquid of Compound-I was prepared by adjusting its dose to 16 and 24 mg/kg/day.
Compound-I and TS-1 were orally administered once a day for 14 days from Day 1. In the combined administration groups, Compound-I at a dose of 16 and 24 mg/kg/day, and TS-1 at a dose of 8.3 mg/kg/day were administered, and the evaluation was performed in the same manner as in Test Example 1. FIGS. 15A and 15B, and Table 17 show the results.
In the same manner as in Test Example 7, the effect of the combined administration was also statistically determined. In the figure and the table, the asterisk represents a result having a statistically significant difference compared with the single-drug administration group.

[2] = test system: Human stomach cancer cell line (NCI-N87); experiment: Potentiation of antitumor effect of paclitaxel, NCI-N87 subcutaneous implant in nude mice (Test Example 2); format: in vivo, BALB/cA Jcl-nu/nu mice
Procedure: In the figure, the asterisk represents a result having a statistically significant difference compared with the single-drug administration group. FIG. 1 and Table 10 show the results. […] Ltd.) was prepared to enable administration at a paclitaxel dose of 60 mg/kg/day. Further, test liquids for the groups receiving only Compound-I were prepared to enable administration at Compound-I doses of 8 mg/kg/day, 16 mg/kg/day, and 24 mg/kg/day. […] In the groups receiving the two drugs, Compound-I was administered at doses of 8 mg/kg/day, 16 mg/kg/day, and 24 mg/kg/day, and paclitaxel was administered at a dose of 60 mg/kg/day. The evaluation was performed in the same manner as in Test Example 1. The effect of the combined administration was also statistically determined in the same manner as in Test Example 1. In the figure and the table, the asterisk represents a result having a statistically significant difference compared with the single-drug administration group. FIG. 3 and Table 11 show the results.

[3] = test system: Human stomach cancer cell line (4-1ST); experiment: Potentiation of effect of trastuzumab (Herceptin), 4-1ST subcutaneous implant in nude mice (Test Example 11); format: in vivo, BALB/cA Jcl-nu/nu mice; conditions: Day 1~14, p.o.
Procedure: As an index of antitumor effect, the TV at Day 15 was measured for each of the drug administration groups, and the relative tumor volume (RTV) relative to Day 1 and T/C (%) were calculated by the following formulas to evaluate the antitumor effect.
TV (mm^3)=(length×width^2)/2 RTV=(TV at Day 15)/(TV at Day 1) T/C(%)=(average RTV value of the test liquid administration group)/(average RTV value of the control group)×100
as §1
According to the package insert, 7.2 mL of water for injection was added to a vial containing 150 mg of trastuzumab (Roche Pharma) using a sterilized injection syringe. The resulting 21 mg/mL solution was kept in a freezer. At the time of use, the frozen solution was diluted 10.5-fold with 4.75 mL of physiological saline at a trastuzumab concentration of 2.0 mg/mL, to yield a liquid for administration at a trastuzumab dose of 20 mg/kg/day. The test liquids of Compound-I were prepared to enable administration at doses of 16 and 24 mg/kg/day.
Compound-I and trastuzumab were administered once a day from Day 1 to 14. In the combined administration groups, Compound-I was administrated at a dose of 16 and 24 mg/kg/day, trastuzumab was administrated at a dose of 20 mg/kg/day, and the evaluation was performed in the same manner as in Test Example 1. FIGS. 17A and 17B and Table 20 show the results. In the medium/Compound I administration group, the test liquid was orally administered once a day for consecutive days. In the trastuzumab administration group, the test liquid was intraperitoneally administered once a day for consecutive days.
The effect of the combined administration was statistically determined in the same manner as in Test Example 7.

[4] = test system: Human ovarian cancer cell line (A2780); experiment: Potentiation of antitumor effect of carboplatin, A2780 subcutaneous implant (Test Example 3); format: in vivo, nude rats; conditions: compound-I 16 mg/kg/day p.o. day 1-14
Procedure: In the figure, the asterisk represents a result having a statistically significant difference compared with the single-drug administration group. FIG. 1 and Table 10 show the results. […] Carboplatin was prepared by diluting a […] injection (Bristol-Myers Squibb, 50 mg/5 mL) two-fold with physiological saline to enable administration at a carboplatin dose of 50 mg/kg/day. Further, the test liquid of Compound-I was prepared by adjusting its dose to 16 mg/kg/day. […] The single-drug administration group was administered 0.5% HPMC or a physiological saline as a vehicle instead of Compound-I or carboplatin. […] FIG. 5 and Table 12 show the results. […] The effect of the combined administration was also statistically determined in the same manner as in Test Example 1. In the figure and the table, the asterisk represents a result having a statistically significant difference compared with the single-drug administration group.

[5] = compound-I 16 mg/kg/day p.o. day 1-14
[6] = compound-I 24 mg/kg/day p.o. day 1-14
[7] = compound-I 8 mg/kg/day p.o. day 1-14

`CC1(O)CC(N)(c2ccc(-c3nc4n(c3-c3ccccc3)COc3ccncc3-4)cc2)C1` (stereo not drawn) [compound-I, trans-3-amino-1-methyl-3-(4-(3-phenyl-5H-imidazo[1,2-c]pyrido[3,4-e][1,3]oxazin-2-yl)phenyl)cyclobutanol] was tested, and the “RTV day 15 Mean ± SD” value [1, 5] was 4.53 ± 0.59, the “T/C (%)” value [1, 5] was 38.1% and the “RTV day 15 Mean ± SD” value [1, 6] was 3.83 ± 0.48. The “T/C (%)” value [1, 6] was 32.2%, the “RTV day 15 Mean ± SD” value [2, 7] was 2.02 ± 0.41 and the “T/C (%)” value [2, 7] was 59%. For the same compound, the “RTV day 15 Mean ± SD” value [2, 5] was 1.32 ± 0.38, the “T/C (%)” value [2, 5] was 39% and the “RTV day 15 Mean ± SD” value [2, 6] was 0.98 ± 0.28. The “T/C (%)” value [2, 6] was 29%, the “RTV^b) (mean ± SD)” value ([3]; compound-I 16 mg/kg/day) was 3.01 ± 0.51 and the “TGI^c) (%)” value ([3]; compound-I 16 mg/kg/day) was 57.5%. The “RTV^b) (mean ± SD)” value ([3]; compound-I 24 mg/kg/day) was 2.74 ± 0.29, the “TGI^c) (%)” value ([3]; compound-I 24 mg/kg/day) was 61.4% and the “RTV day 15 Mean ± SD” value [4] was 20.86 ± 4.84. The “T/C (%)” value [4] was 81%.
